# Source: patent US20260184713A1, “KINASE INHIBITORS” (The United States of America, as represented by the …, priority 2022, published 2026)
# Where two headings read alike, the source gives them in different places.
# Experiments:
# Assay in all cases: HOTSPOT radiometric kinase assay
# MSK2 = molecular target: T1, MSK2 (Homo sapiens, UniProt O75676); format: biochemical; conditions: 10 μM ATP
# T1 construct: purchased Reaction Biology Corp
# YSK1 = molecular target: T2, YSK1 (Homo sapiens, UniProt O00506); format: biochemical; conditions: 50 nM, 10 μM ATP
# T2 construct: purchased Reaction Biology Corp
# IRAK2 = molecular target: T3, IRAK2 (Homo sapiens, UniProt O43187); format: biochemical; conditions: 10 μM ATP
# T3 construct: purchased Reaction Biology Corp
# PKCα = PKCα (Homo sapiens, UniProt P17252)
# CK1α1 = CK1α1 (Homo sapiens, UniProt P48729)
# ROCK2 = molecular target: T4, ROCK2 (Homo sapiens, UniProt O75116); format: biochemical; conditions: 10 μM ATP
# T4 construct: purchased Reaction Biology Corp
# T4 sequence (O75116 whole entry): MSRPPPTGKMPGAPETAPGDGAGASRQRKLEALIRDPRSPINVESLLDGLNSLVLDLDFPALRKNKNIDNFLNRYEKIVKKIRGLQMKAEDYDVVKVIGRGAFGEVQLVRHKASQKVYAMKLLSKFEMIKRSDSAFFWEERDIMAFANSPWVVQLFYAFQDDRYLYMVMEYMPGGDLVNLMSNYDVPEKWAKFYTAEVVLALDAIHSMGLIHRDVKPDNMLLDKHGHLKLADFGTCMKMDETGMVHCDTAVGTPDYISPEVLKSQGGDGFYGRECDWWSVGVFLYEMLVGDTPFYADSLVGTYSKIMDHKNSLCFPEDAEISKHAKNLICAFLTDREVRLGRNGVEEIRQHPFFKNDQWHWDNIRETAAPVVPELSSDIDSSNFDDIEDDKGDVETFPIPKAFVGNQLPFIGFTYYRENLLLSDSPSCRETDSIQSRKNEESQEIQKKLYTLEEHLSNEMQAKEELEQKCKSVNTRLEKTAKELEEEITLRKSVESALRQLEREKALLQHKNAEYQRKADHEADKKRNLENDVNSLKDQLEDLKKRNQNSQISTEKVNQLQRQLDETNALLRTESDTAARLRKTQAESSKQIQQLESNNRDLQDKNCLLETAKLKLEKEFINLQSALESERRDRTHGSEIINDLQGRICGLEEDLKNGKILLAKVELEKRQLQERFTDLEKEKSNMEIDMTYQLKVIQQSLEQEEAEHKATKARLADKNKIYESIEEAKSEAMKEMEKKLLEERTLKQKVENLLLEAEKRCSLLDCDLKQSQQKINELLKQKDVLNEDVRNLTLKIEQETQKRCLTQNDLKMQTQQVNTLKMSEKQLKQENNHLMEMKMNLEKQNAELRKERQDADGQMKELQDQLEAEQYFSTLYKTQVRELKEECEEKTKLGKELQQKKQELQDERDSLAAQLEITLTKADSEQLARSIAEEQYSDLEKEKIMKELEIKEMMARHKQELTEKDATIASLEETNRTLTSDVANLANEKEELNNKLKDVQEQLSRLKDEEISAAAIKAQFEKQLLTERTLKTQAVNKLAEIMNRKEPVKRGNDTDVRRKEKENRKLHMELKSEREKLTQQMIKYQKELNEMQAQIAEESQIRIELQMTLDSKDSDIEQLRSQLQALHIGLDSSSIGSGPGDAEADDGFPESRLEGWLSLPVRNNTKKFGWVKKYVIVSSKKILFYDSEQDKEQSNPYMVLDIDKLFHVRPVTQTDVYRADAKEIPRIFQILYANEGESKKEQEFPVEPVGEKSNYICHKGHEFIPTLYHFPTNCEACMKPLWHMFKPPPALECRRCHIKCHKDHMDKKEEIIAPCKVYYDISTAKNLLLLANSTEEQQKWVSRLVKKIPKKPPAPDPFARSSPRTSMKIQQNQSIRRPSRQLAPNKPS
# T1 sequence (O75676 whole entry): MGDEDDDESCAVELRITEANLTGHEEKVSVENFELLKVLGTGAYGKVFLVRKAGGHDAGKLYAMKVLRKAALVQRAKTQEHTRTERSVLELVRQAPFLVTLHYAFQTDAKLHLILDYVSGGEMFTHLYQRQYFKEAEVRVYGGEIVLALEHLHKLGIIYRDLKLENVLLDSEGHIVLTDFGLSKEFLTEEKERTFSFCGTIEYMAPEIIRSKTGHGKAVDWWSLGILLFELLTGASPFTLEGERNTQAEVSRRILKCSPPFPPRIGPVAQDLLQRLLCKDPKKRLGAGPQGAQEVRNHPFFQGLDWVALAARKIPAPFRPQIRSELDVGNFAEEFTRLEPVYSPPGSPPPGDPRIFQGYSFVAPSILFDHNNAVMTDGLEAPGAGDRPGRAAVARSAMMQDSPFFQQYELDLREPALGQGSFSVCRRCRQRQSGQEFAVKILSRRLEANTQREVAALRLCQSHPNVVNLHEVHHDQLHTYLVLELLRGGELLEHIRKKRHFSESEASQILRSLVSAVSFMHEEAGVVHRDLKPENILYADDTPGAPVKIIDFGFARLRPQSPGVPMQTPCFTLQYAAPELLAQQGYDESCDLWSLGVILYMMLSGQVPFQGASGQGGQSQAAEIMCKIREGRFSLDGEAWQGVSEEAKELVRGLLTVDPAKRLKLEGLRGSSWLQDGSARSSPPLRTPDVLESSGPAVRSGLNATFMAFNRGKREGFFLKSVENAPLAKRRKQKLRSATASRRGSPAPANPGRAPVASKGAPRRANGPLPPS
# T3 sequence (O43187 whole entry): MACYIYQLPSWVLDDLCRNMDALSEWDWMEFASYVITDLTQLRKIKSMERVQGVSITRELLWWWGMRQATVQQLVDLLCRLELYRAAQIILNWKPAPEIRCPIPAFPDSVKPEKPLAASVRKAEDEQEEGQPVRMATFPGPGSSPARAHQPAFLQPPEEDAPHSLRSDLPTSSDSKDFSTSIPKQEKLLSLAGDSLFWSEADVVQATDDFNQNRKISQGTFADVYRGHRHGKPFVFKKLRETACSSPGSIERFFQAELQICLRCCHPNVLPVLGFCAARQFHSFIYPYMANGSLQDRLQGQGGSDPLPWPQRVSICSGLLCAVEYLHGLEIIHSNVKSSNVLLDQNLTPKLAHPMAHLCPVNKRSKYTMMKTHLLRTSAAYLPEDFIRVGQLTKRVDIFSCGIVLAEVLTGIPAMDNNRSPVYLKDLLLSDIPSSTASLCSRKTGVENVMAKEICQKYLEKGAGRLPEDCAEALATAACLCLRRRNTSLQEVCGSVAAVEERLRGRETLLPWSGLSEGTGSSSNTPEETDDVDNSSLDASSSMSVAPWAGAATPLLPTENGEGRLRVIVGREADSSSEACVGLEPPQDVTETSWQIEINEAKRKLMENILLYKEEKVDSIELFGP
# Chain of CK1α1 (P48729 whole entry): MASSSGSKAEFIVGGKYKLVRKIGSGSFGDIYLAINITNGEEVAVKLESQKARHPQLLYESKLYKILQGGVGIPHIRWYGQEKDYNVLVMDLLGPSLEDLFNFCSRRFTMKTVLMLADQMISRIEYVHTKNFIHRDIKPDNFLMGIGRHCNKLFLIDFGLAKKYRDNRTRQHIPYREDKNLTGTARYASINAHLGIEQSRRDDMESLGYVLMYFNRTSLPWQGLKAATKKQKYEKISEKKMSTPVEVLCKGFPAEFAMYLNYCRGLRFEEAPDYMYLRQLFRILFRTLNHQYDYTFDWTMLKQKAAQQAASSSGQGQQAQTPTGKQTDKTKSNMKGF
# T2 sequence (O00506 whole entry): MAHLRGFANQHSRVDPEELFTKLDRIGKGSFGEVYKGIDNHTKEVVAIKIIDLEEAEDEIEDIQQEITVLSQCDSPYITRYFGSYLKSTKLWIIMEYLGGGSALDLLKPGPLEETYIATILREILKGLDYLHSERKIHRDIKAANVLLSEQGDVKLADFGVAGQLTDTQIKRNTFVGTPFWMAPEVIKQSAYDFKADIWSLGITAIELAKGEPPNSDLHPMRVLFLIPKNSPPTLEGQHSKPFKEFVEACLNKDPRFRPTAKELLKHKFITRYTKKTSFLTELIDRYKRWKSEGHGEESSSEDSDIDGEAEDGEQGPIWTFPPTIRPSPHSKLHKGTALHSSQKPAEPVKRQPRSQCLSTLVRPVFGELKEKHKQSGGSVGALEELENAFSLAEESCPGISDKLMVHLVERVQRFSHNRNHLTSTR
smiles,measurement,setting,value
"Cn1cncc1C1=CN(c2ncnc3nc[nH]c23)CCS1 [Compound 1, Aplithianine A]",inhibition at 0.05 µM,MSK2; 50 nM,13.3%
same,inhibition at 2 µM,MSK2; 2 μM,75.5%
same,inhibition at 0.05 µM,YSK1,13.5%
same,inhibition at 0.05 µM,IRAK2; 50 nM,30.7%
same,inhibition at 2 µM,IRAK2; 2 μM,85%
same,IC50,PKCα,800 to 6600 nM
same,IC50,"PKCα; read-out: PKCα IC50, 10 μM ATP",1320 nM
same,IC50,CK1α1,800 to 6600 nM
same,IC50,"CK1α1; read-out: CK1α1 IC50, 10 μM ATP",1830 nM
same,inhibition at 0.05 µM,ROCK2; 50 nM,19.6%
same,inhibition at 2 µM,ROCK2; 2 μM,93.3%
